Laboratory results taken from PubChem BioAssay (NCI).
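Where inhibition never reached the appropriate level, the endpoint shown equals the highest concentration tested. Otherwise, values were interpolated linearly from a five-concentration, 48-hour dose response in 96-well plates. Abbreviation: GI50, concentration required for 50% inhibition of growth. At the TGI there is no net growth.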

Key:
Experiment in all cases: growth of human tumour cells (NCI), 48 h
[1] = tested on: T-47D breast
[2] = tested on: SNB-75 CNS
[3] = tested on: A549 NSCLC
[4] = tested on: OVCAR-4 ovarian
[5] = tested on: UO-31 renal
[6] = tested on: SK-MEL-28 melanoma
[7] = tested on: HL-60(TB) leukemia
[8] = tested on: SR leukemia
[9] = tested on: U251 CNS
[10] = tested on: K-562 leukemia
[11] = tested on: CAKI-1 renal
[12] = tested on: MALME-3M melanoma
[13] = tested on: RXF 393 renal
[14] = tested on: HOP-92 NSCLC
[15] = tested on: 786-0 renal
[16] = tested on: SW-620 colon
[17] = tested on: HCC-2998 colon
[18] = tested on: OVCAR-3 ovarian
[19] = tested on: SF-295 CNS
[20] = tested on: IGROV1 ovarian
[21] = tested on: UACC-62 melanoma
[22] = tested on: MDA-MB-435
[23] = tested on: HS 578T breast
[24] = tested on: DU-145 prostate
[25] = tested on: HCT-15 colon
[26] = tested on: SK-OV-3 ovarian
[27] = tested on: MDA-MB-231 breast
[28] = tested on: OVCAR-5 ovarian

SMILES: O=C(Cc1ccccc1)NC(c1ccc(Cl)cc1)c1c(O)ccc2ccccc12 (stereo unspecified)
- GI50 [1]: 3.65 µM
- TGI [1]: 13.8 µM
- GI50 [2]: 2.22 µM
- TGI [2]: 12.4 µM
- GI50 [3]: 3.68 µM
- TGI [3]: 13.3 µM
- GI50 [4]: 2.73 µM
- TGI [4]: 10.2 µM
- GI50 [5]: 2.41 µM
- TGI [5]: 8.93 µM
- GI50 [6]: 3.16 µM
- TGI [6]: 11.6 µM
- GI50 [7]: 2.43 µM
- TGI [7]: 6.39 µM
- GI50 [8]: 2.56 µM
- TGI [8]: 10.1 µM
- GI50 [9]: 2.55 µM
- TGI [9]: 6.94 µM
- GI50 [10]: 3.1 µM
- TGI [10]: 26.3 µM
- GI50 [11]: 2.52 µM
- TGI [11]: 10.2 µM
- GI50 [12]: 2.69 µM
- TGI [12]: 8.22 µM
- GI50 [13]: 2.17 µM
- TGI [13]: 8.03 µM
- GI50 [14]: 2.77 µM
- TGI [14]: 7.24 µM
- GI50 [15]: 2.87 µM
- TGI [15]: 9.76 µM
- GI50 [16]: 3.22 µM
- TGI [16]: 13.4 µM
- GI50 [17]: 3.2 µM
- TGI [17]: 12.2 µM
- GI50 [18]: 2.97 µM
- TGI [18]: 7.64 µM
- GI50 [19]: 2.35 µM
- TGI [19]: 7.5 µM
- GI50 [20]: 4.67 µM
- TGI [20]: 18.3 µM
- GI50 [21]: 2.25 µM
- TGI [21]: 6.07 µM
- GI50 [22]: 2.91 µM
- TGI [22]: 10.7 µM
- GI50 [23]: 2.81 µM
- TGI [23]: 13.8 µM
- GI50 [24]: 4.68 µM
- TGI [24]: 17 µM
- GI50 [25]: 2.83 µM
- TGI [25]: 10.5 µM
- GI50 [26]: 3.01 µM
- TGI [26]: 9.26 µM
- GI50 [27]: 1.98 µM
- TGI [27]: 4.73 µM
- GI50 [28]: 3.16 µM
- TGI [28]: 10.2 µM
